In patent US8129398B2 (priority 2008, dated 2012) one finds IC50 data, which are given here for 27 compounds.

The experiment concerns the target T1, HIV-integrase (Human immunodeficiency virus type 1 group M subtype B, UniProt P12497).
T1 construct: Recombinant integrase (0.26 ng) was incubated with the beads
Nature of the experiment: HIV-Integrase Inhibition Activity (SPA bead integration assay with P33 labeled target DNA). It is filed as biochemical. As to conditions: recombinant integrase, class symbols; read-out: in vitro activity. The method, then: HIV-Integrase Inhibition Activity. To evaluate in-vitro activity against HIV-integrase, 5 pmole of biotin labeled substrate DNA was bound to 100 μg of Streptavidin coated PVT SPA beads (Amersham Pharmacia Biotech). Recombinant integrase (0.26 ng) was incubated with the beads for 90 min at 37° C. Unbound enzyme was removed by washing the complex followed by addition of inhibitors and 0.1 fmol of P33 labeled target DNA. The reaction was stopped by adding EDTA to a final concentration of 10 mM. Samples were counted in TopCountNXT (Packard) and the CPM was used as a measure of integration. The reaction condition was as described in A. Engelman and R. Craigie, J. Virol. 69, 5908-5911 (1995). The sequences of substrate and target DNA were described in Nucleic Acid Research 22, 1121-1122 (1994). Activity equal to A refers to a compound having IC50=<10 nM while B and C denote compounds having […] and IC50>100 nM respectively.
As to `O=C(NC12CCC(CC1)Cn1c2nc(C(=O)NCc2ccc(F)cc2)c(O)c1=O)OCc1ccccc1` [Example 18, Benzyl (2-((4-fluorobenzyl)carbamoyl)-3-hydroxy-4-oxo-6,7,8,9-tetrahydro-7,10-ethanopyrimido[1,2-a]azepin-10(4H)-yl)carbamate], the IC50 was < 10 nM.

With `O=C(NC12CCC(CC1)Cn1c2nc(C(=O)NCc2ccc(F)cc2)c(O)c1=O)C(=O)N1CCN(c2ccccn2)CC1` [Example 78, N-(4-Fluorobenzyl)-3-hydroxy-4-oxo-10-((oxo(4-(2-pyridinyl)-1-piperazinyl)acetyl)amino)-4,6,7,8,9,10-hexahydro-7,10-ethanopyrimido[1,2-a]azepine-2-carboxamide], the IC50 is < 10 nM.

Take `CN(C)C(=O)C(=O)NC12CCC(CC1)Cn1c2nc(C(=O)NCc2ccc(F)cc2CO)c(O)c1=O` [Example 122, N′-(2-((4-Fluoro-2-(hydroxymethyl)benzyl)carbamoyl)-3-hydroxy-4-oxo-6,7,8,9-tetrahydro-7,10-ethanopyrimido[1,2-a]azepin-10(4H)-yl)-N,N-dimethylethanediamide]: the IC50 was < 10 nM.

As to `Cn1nc(C(C)(C)C)cc1C(=O)NC12CCC(CC1)n1c2nc(C(=O)NCc2ccc(F)cc2)c(O)c1=O` [Example 15, 6,9-Ethano-4H-pyrido[1,2-a]pyrimidine-2-carboxamide, 9-[[[3-(1,1-dimethylethyl)-1-methyl-1H-pyrazol-5-yl]carbonyl]amino]-N-[(4-fluorophenyl)methyl]-6,7,8,9-tetrahydro-3-hydroxy-4-oxo-], the IC50 was < 10 nM.

Regarding `Cc1cccc(S(=O)(=O)NC23CCC(CC2)Cn2c3nc(C(=O)NCc3ccc(F)cc3)c(O)c2=O)c1` [Example 391], the IC50 was < 10 nM.

With `CN(C)C(=O)C(=O)NC12CCC(CC1)Cn1c2nc(C(=O)NCc2ccc(F)c(C3CC3)c2)c(O)c1=O` [Example 128, N′-(2-((3-Cyclopropyl-4-fluorobenzyl)carbamoyl)-3-hydroxy-4-oxo-6,7,8,9-tetrahydro-7,10-ethanopyrimido[1,2-a]azepin-10(4H)-yl)-N,N-dimethylethanediamide], the IC50 was < 10 nM.

For the compound `CC(=O)NC12CCC(Cn3c1nc(C(=O)NCc1ccc(F)cc1)c(O)c3=O)OC2` (stereo not drawn) [Example 221, 10-(Acetylamino)-N-(4-fluorobenzyl)-3-hydroxy-4-oxo-4,6,7,8,9,10-hexahydro-7,10-(epoxymethano)pyrimido[1,2-a]azepine-2-carboxamide], the IC50 is < 10 nM.

Regarding `O=C(NCc1ccc(F)cc1)c1nc2n(c(=O)c1O)CC1CCC2(NC(=O)C2CCCN2S(=O)(=O)C2CCCC2)CC1` (stereo not drawn) [Example 408], the IC50 is < 10 nM.

Consider `CCOC(=O)N1CCCC1C(=O)NC12CCC(CC1)Cn1c2nc(C(=O)NCc2ccc(F)cc2)c(O)c1=O` (stereo not drawn) [Example 397], for which the IC50 was < 10 nM.

As to `O=C(NC12CCC(CC1)Cn1c2nc(C(=O)NCc2ccc(F)cc2)c(O)c1=O)c1ncccn1` [Example 311, 7,10-Ethanopyrimido[1,2-a]azepine-2-carboxamide, N-[(4-fluorophenyl)methyl]-4,6,7,8,9,10-hexahydro-3-hydroxy-4-oxo-10-[(2-pyrimidinylcarbonyl)amino]-], the IC50 was < 10 nM.

Consider `CN(C)C(=O)C(=O)NC12CCC(CC1)Cn1c2nc(C(=O)NCCc2cccs2)c(O)c1=O` [Example 354], for which the IC50 lay within 10 to 100 nM.

For `Cc1cc(CNC(=O)c2nc3n(c(=O)c2O)CC[C@H]2CC[C@]3(NC(=O)C(=O)N(C)C)C2)ccc1F` [Example 416, Ethanediamide, N′-[(8R,11S)-2-[[[(4-fluoro-3-methylphenyl)methyl]amino]carbonyl]-7,8,9,10-tetrahydro-3-hydroxy-4-oxo-8,11-methano-4H-pyrimido[1,2-a]azocin-11(6H)-yl]-N,N-dimethyl-], the IC50 was < 10 nM.

Turning to `CN(C(=O)N(C)C12CCC(CC1)Cn1c2nc(C(=O)NCc2ccc(F)cc2)c(O)c1=O)c1ccccn1` [Example 328, 7,10-Ethanopyrimido[1,2-a]azepine-2-carboxamide, N-[(4-fluorophenyl)methyl]-4,6,7,8,9,10-hexahydro-3-hydroxy-10-[methyl[(methyl-2-pyridinylamino)carbonyl]amino]-4-oxo-], the IC50 lay in the range of 10 to 100 nM.

Regarding `Cn1ccnc1C(=O)NC12CCC(CC1)Cn1c2nc(C(=O)NCc2ccc(F)cc2)c(O)c1=O` [Example 49, N-(4-Fluorobenzyl)-3-hydroxy-10-(((1-methyl-1H-imidazol-2-yl)carbonyl)amino)-4-oxo-4,6,7,8,9,10-hexahydro-7,11-ethanopyrimido[1,2-a]azepine-2-carboxamide], the IC50 was < 10 nM.

Turning to `Cc1cc(C(=O)NC23CCC(CC2)Cn2c3nc(C(=O)NCc3ccc(F)cc3)c(O)c2=O)nn1C` [Example 24, 10-(((1,5-Dimethyl-1H-pyrazol-3-yl)carbonyl)amino)-N-(4-fluorobenzyl)-3-hydroxy-4-oxo-4,6,7,8,9,10-hexahydro-7,10-ethanopyrimido[1,2-a]azepine-2-carboxamide], the IC50 is < 10 nM.

With `Cc1cc(CNC(=O)c2nc3n(c(=O)c2O)CC2CCC3(NC(=O)[C@@H]3CCCN3S(C)(=O)=O)CC2)ccc1F` [Example 263, 7,10-Ethanopyrimido[1,2-a]azepine-2-carboxamide, N-[(4-fluoro-3-methylphenyl)methyl]-4,6,7,8,9,10-hexahydro-3-hydroxy-10-[[[(2S)-1-(methylsulfonyl)-2-pyrrolidinyl]carbonyl]amino]-4-oxo-], the IC50 is < 10 nM.

`CN(C)C12CCC(Cn3c1nc(C(=O)NCc1ccc(F)cc1)c(O)c3=O)C2` (stereo not drawn) [Example 195, 7,10-Methanopyrimido[1,2-a]azepine-2-carboxamide, 10-(dimethylamino)-N-[(4-fluorophenyl)methyl]-4,6,7,8,9,10-hexahydro-3-hydroxy-4-oxo-]: the IC50 was 10 to 100 nM.

In the case of `CS(=O)(=O)N1CCCC1C(=O)NC12CCC(CC1)Cn1c2nc(C(=O)NCc2ccc(F)cc2)c(O)c1=O` (stereo in doubt) [Example 254, 7,10-Ethanopyrimido[1,2-a]azepine-2-carboxamide, N-[(4-fluorophenyl)methyl]-4,6,7,8,9,10-hexahydro-3-hydroxy-10-[[[(2R)-1-(methylsulfonyl)-2-pyrrolidinyl]carbonyl]amino]-4-oxo-], the IC50 is < 10 nM.

Consider `CN(C)C(=O)C(=O)OCCNC12CCC(CC1)Cn1c2nc(C(=O)NCc2ccc(F)cc2)c(O)c1=O` [Example 176], for which the IC50 fell in the range of 10 to 100 nM.

In the case of `COCCN(C)C(=O)C(=O)NC12CCC(CC1)Cn1c2nc(C(=O)NCc2ccc(F)c(Cl)c2)c(O)c1=O` [Example 135, N′-(2-((3-Chloro-4-fluorobenzyl)carbamoyl)-3-hydroxy-4-oxo-6,7,8,9-tetrahydro-7,11-ethanopyrimido[1,2-a]azepin-10(4H)-yl)-N-(2-methoxyethyl)-N-methylethanediamide], the IC50 was < 10 nM.

As for `O=C(NC12CCC(CC1)Cn1c2nc(C(=O)NCc2ccc(F)cc2)c(O)c1=O)c1cnc2ccccc2c1` [Example 315, 7,10-Ethanopyrimido[1,2-a]azepine-2-carboxamide, N-[(4-fluorophenyl)methyl]-4,6,7,8,9,10-hexahydro-3-hydroxy-4-oxo-10-[(3-quinolinylcarbonyl)amino]-], the IC50 is < 10 nM.

As for `CO[C@H]1C[C@@H](C(=O)NC23CCC(CC2)Cn2c3nc(C(=O)NCc3ccc(F)c(C)c3)c(O)c2=O)N(C(=O)c2cc(C)on2)C1` [Example 296, 7,10-Ethanopyrimido[1,2-a]azepine-2-carboxamide, N-[(4-fluoro-3-methylphenyl)methyl]-4,6,7,8,9,10-hexahydro-3-hydroxy-10-[[[(2S,4S)-4-methoxy-1-[(5-methyl-3-isoxazolyl)carbonyl]-2-pyrrolidinyl]carbonyl]amino]-4-oxo-], the IC50 is < 10 nM.

Turning to `CN(C(=O)c1ccncc1)C12CCC(CC1)Cn1c2nc(C(=O)NCc2ccc(F)cc2)c(O)c1=O` [Example 310, 7,10-Ethanopyrimido[1,2-a]azepine-2-carboxamide, N-[(4-fluorophenyl)methyl]-4,6,7,8,9,10-hexahydro-3-hydroxy-10-[methyl(4-pyridinylcarbonyl)amino]-4-oxo-], the IC50 was < 10 nM.

Regarding `Cc1cc(C(=O)N(C)C23CCC(CC2)Cn2c3nc(C(=O)NCc3ccc(F)cc3)c(O)c2=O)no1` [Example 154, N-(4-Fluorobenzyl)-3-hydroxy-10-(methyl((5-methyl-3-isoxazolyl)carbonyl)amino)-4-oxo-4,6,7,8,9,10-hexahydro-7,10-ethanopyrimido[1,2-a]azepine-2-carboxamide], the IC50 was < 10 nM.

Regarding `C=C[C@@H]1C[C@]1(NS(C)(=O)=O)C(=O)NC12CCC(CC1)Cn1c2nc(C(=O)NCc2ccc(F)cc2)c(O)c1=O` [Example 278, 7,10-Ethanopyrimido[1,2-a]azepine-2-carboxamide, 10-[[[(1R,2S)-2-ethenyl-1-[(methylsulfonyl)amino]cyclopropyl]carbonyl]amino]-N-[(4-fluorophenyl)methyl]-4,6,7,8,9,10-hexahydro-3-hydroxy-4-oxo-], the IC50 was < 10 nM.

Regarding `O=C(NCc1ccc(F)cc1)c1nc2n(c(=O)c1O)CC1CCC2(NS(=O)(=O)c2ccccc2)CC1` [Example 395], the IC50 is < 10 nM.

In the case of `CCOC(=O)C(=O)NC12CCC(CC1)Cn1c2nc(C(=O)NCc2ccc(F)cc2)c(O)c1=O` [Example 83, Ethyl((2-((4-fluorobenzyl)carbamoyl)-3-hydroxy-4-oxo-6,7,8,9-tetrahydro-7,10-ethanopyrimido[1,2-a]azepin-10(4H)-yl)amino)(oxo)acetate], the IC50 was < 10 nM.
